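These data come from cells grown in 96-well plates and exposed to compound for 48 hours at five concentrations. GI50 is the concentration that inhibits growth by half.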 The source made the active and inactive calls. No stated cut-off is given here; in the data, active = GI50 up to about 1.1 µM and inactive = higher.
Columns and labels:
Test in all cases: growth of human tumour cells (NCI), 48 h
A498 = tested on: A498
SK-OV-3 = tested on: SK-OV-3
TK-10 = tested on: TK-10
DU-145 = tested on: DU-145
A549 = tested on: A549
UO-31 = tested on: UO-31
PC-3 = tested on: PC-3
MDA-MB-231 = tested on: MDA-MB-231
RXF 393 = tested on: RXF 393
OVCAR-8 = tested on: OVCAR-8
OVCAR-4 = tested on: OVCAR-4
SNB-19 = tested on: SNB-19
Malme-3M = tested on: Malme-3M
IGROV-1 = tested on: IGROV-1
SK-MEL-28 = tested on: SK-MEL-28
NCI-H522 = tested on: NCI-H522
CCRF-CEM = tested on: CCRF-CEM
SW-620 = tested on: SW-620
CAKI-1 = tested on: CAKI-1
SK-MEL-2 = tested on: SK-MEL-2

Row | Structure (SMILES) | GI50 (A498) | GI50 (SK-OV-3) | GI50 (TK-10) | GI50 (DU-145) | GI50 (A549) | GI50 (UO-31) | GI50 (PC-3) | GI50 (MDA-MB-231) | GI50 (RXF 393) | GI50 (OVCAR-8) | GI50 (OVCAR-4) | GI50 (SNB-19) | GI50 (Malme-3M) | GI50 (IGROV-1) | GI50 (SK-MEL-28) | GI50 (NCI-H522) | GI50 (CCRF-CEM) | GI50 (SW-620) | GI50 (CAKI-1) | GI50 (SK-MEL-2)
1 | COc1ccc(OC)c2c1C(=O)C(Cl)=C(N1CCN(CCOCCO)CC1)C2=O | 16.9 µM (inactive) | 19.6 µM (inactive) | 19 µM (inactive) | 18.6 µM (inactive) | 20.5 µM (inactive) | 16.4 µM (inactive) | 6.37 µM (inactive) | 13.9 µM (inactive) | 19 µM (inactive) | 16.6 µM (inactive) | 17.9 µM (inactive) | 16 µM (inactive) | 19.8 µM (inactive) | 7.31 µM (inactive) | 16.1 µM (inactive) | 4.3 µM (inactive) | 2.72 µM (inactive) | 8.85 µM (inactive) |  | 
2 | CCOP(=O)(OCC)C(Cc1ccc(OC)c(OC)c1)N=C(c1ccccc1)c1ccccc1 (stereo unspecified) | 56.8 µM (inactive) |  | 40.8 µM (inactive) | 37.2 µM (inactive) | 26.5 µM (inactive) | 40.4 µM (inactive) | 32.4 µM (inactive) | 42.3 µM (inactive) | 61.4 µM (inactive) | 42.9 µM (inactive) | 81.7 µM (inactive) | 63 µM (inactive) |  | 45.2 µM (inactive) | 45.3 µM (inactive) | 22.8 µM (inactive) | 24 µM (inactive) | 47.6 µM (inactive) | 67 µM (inactive) | 
3 | O=C1Nc2ccccc2/C1=N/NC(=S)Nc1ccccc1Cl | 7.96 µM (inactive) | 10.7 µM (inactive) | 2.1 µM (inactive) | 9.27 µM (inactive) | 3.58 µM (inactive) | 3.32 µM (inactive) | 5.93 µM (inactive) | 11.3 µM (inactive) | 5.2 µM (inactive) | 2.23 µM (inactive) | 5.13 µM (inactive) | 4.84 µM (inactive) | 3.44 µM (inactive) | 3.33 µM (inactive) | 12.2 µM (inactive) | 11.9 µM (inactive) | 0.724 µM (active) | 5.9 µM (inactive) | 3.8 µM (inactive) | 13.8 µM (inactive)
4 | COC(=O)C1C(C(=O)OC)C1(Br)CBr (stereo unspecified) | > 100 µM (inactive) | > 100 µM (inactive) | > 100 µM (inactive) | > 100 µM (inactive) | > 100 µM (inactive) | 18.4 µM (inactive) | > 100 µM (inactive) | 87.5 µM (inactive) | 19.1 µM (inactive) | 32.5 µM (inactive) | 39.7 µM (inactive) | > 100 µM (inactive) |  | 30.5 µM (inactive) | 35.4 µM (inactive) | 3.54 µM (inactive) |  | 31.7 µM (inactive) | 17.8 µM (inactive) | > 100 µM (inactive)
5 | CN1C(=O)C2C=C3CCCCC3=CC2N(C)C1=O (stereo unspecified) | > 100 µM (inactive) | > 100 µM (inactive) | > 100 µM (inactive) | > 100 µM (inactive) | > 100 µM (inactive) | > 100 µM (inactive) | > 100 µM (inactive) | > 100 µM (inactive) | > 100 µM (inactive) | > 100 µM (inactive) | > 100 µM (inactive) | > 100 µM (inactive) | > 100 µM (inactive) | > 100 µM (inactive) | > 100 µM (inactive) | > 100 µM (inactive) | > 100 µM (inactive) | > 100 µM (inactive) | > 100 µM (inactive) | > 100 µM (inactive)
6 | O=S(=O)(N/C(=N\O)Nc1ccc(Cl)cc1)c1ccccc1 | 6.67 µM (inactive) | 27.9 µM (inactive) | 14 µM (inactive) | 18.5 µM (inactive) | 21.2 µM (inactive) | 3.23 µM (inactive) | 13.3 µM (inactive) | 29.5 µM (inactive) | 2.77 µM (inactive) | 10.2 µM (inactive) | 2.33 µM (inactive) | 22.8 µM (inactive) | 4.34 µM (inactive) | 10.5 µM (inactive) | 10.9 µM (inactive) | 1.03 µM (active) | 33.9 µM (inactive) | 10 µM (inactive) | 2.07 µM (inactive) | 11.6 µM (inactive)
7 | Cn1c2ncccc2n2c(=O)cc(O)cc12 | 64.7 µM (inactive) | > 100 µM (inactive) | 45 µM (inactive) | > 100 µM (inactive) | > 100 µM (inactive) | 47.2 µM (inactive) | 56.4 µM (inactive) | 32.4 µM (inactive) | 21.1 µM (inactive) | > 100 µM (inactive) | 40 µM (inactive) | > 100 µM (inactive) | 33.6 µM (inactive) | 12.3 µM (inactive) | 89.3 µM (inactive) | 44 µM (inactive) | > 100 µM (inactive) | 82.4 µM (inactive) | 32.4 µM (inactive) | 39.6 µM (inactive)
8 | Cc1ccc(S(=O)(=O)C2=Cc3ccc(C(F)(F)F)cc3C2(O)c2cccc(C(F)(F)F)c2)cc1 (stereo unspecified) | 2 µM (inactive) | 10.2 µM (inactive) | 2.47 µM (inactive) | 3.25 µM (inactive) | 2.99 µM (inactive) | 2.25 µM (inactive) | 2.79 µM (inactive) | 2.08 µM (inactive) | 2.23 µM (inactive) | 1.41 µM (inactive) | 1.85 µM (inactive) | 5.83 µM (inactive) | 2.02 µM (inactive) | 2.64 µM (inactive) | 1.9 µM (inactive) | 1.66 µM (inactive) | 2.56 µM (inactive) | 1.85 µM (inactive) | 4.05 µM (inactive) | 1.82 µM (inactive)
9 | C/C1=C\[C@@H](C)C[C@@H](C)OC(=O)[C@@H](C)NC(=O)[C@H](Cc2ccc(O)c(Br)c2)N(C)C(=O)CNC(=O)[C@H](C)C1 | < 0.0106 µM (active) | < 0.01 µM (active) | < 0.0157 µM (active) | 0.363 µM (active) | < 0.01 µM (active) | 0.026 µM (active) | < 0.01 µM (active) | < 0.01 µM (active) | < 0.0184 µM (active) | 0.137 µM (active) | < 0.01 µM (active) | 0.295 µM (active) | 0.0328 µM (active) | < 0.01 µM (active) | 0.0284 µM (active) | < 0.01 µM (active) | < 0.01 µM (active) | < 0.01 µM (active) | < 0.01 µM (active) | 
10 | C[C@H]1C(=O)O[C@@H]2CCN3CC=C(COC(=O)[C@](C)(O)[C@@]1(C)O)[C@H]23 | > 100 µM (inactive) | > 100 µM (inactive) | > 100 µM (inactive) | > 100 µM (inactive) | > 100 µM (inactive) | > 100 µM (inactive) | > 100 µM (inactive) | > 100 µM (inactive) |  | > 100 µM (inactive) | > 100 µM (inactive) | > 100 µM (inactive) |  | > 100 µM (inactive) | > 100 µM (inactive) | > 100 µM (inactive) | > 100 µM (inactive) | > 100 µM (inactive) | > 100 µM (inactive) | > 100 µM (inactive)
11 | CC1(C)CCC[C@]2(C)[C@@H](C=O)C(C=O)=CC[C@@H]12 [POLYGODIAL] | 40.9 µM (inactive) | 30.8 µM (inactive) | 25.9 µM (inactive) | 18.5 µM (inactive) | 37.5 µM (inactive) | 16.4 µM (inactive) | 27.7 µM (inactive) | 10.6 µM (inactive) | 17.1 µM (inactive) | 16.4 µM (inactive) | 15.8 µM (inactive) | 18.2 µM (inactive) | 15.2 µM (inactive) | 19 µM (inactive) | 43.2 µM (inactive) | 15.8 µM (inactive) | 20.3 µM (inactive) | 35.4 µM (inactive) | 6.82 µM (inactive) | 18.1 µM (inactive)
12 | O=C1CSC2(CC(/C=C/c3cccc([N+](=O)[O-])c3)=NN2c2cccc(S(=O)(=O)O)c2)N1c1nc2ccccc2s1 (stereo unspecified) | 20.4 µM (inactive) |  | 20 µM (inactive) | 19.6 µM (inactive) | 25.8 µM (inactive) | 19.6 µM (inactive) | 21.4 µM (inactive) | 19.1 µM (inactive) | 34.2 µM (inactive) | 13.8 µM (inactive) | 25.2 µM (inactive) | 21 µM (inactive) | 51.3 µM (inactive) | 13.9 µM (inactive) | 57 µM (inactive) | 18.3 µM (inactive) | 20.7 µM (inactive) | 26.8 µM (inactive) | 49.7 µM (inactive) | 22.9 µM (inactive)
13 | COc1ccc(-c2c(-c3ccccc3)c(C)nc3nc(SC)nc(SC)c23)cc1OC | 15.7 µM (inactive) | 3.72 µM (inactive) | 23.6 µM (inactive) | 15.5 µM (inactive) | 1.4 µM (inactive) | 3.79 µM (inactive) | 4.29 µM (inactive) | 20.9 µM (inactive) | 17.1 µM (inactive) |  |  | 26.7 µM (inactive) | 10.1 µM (inactive) | 30 µM (inactive) | 22.8 µM (inactive) | 4.61 µM (inactive) | 4.26 µM (inactive) | 6.32 µM (inactive) | 0.764 µM (active) | 17.1 µM (inactive)
14 | O=c1[nH]c2ccccc2n1CCCN1CCC(n2c(=O)[nH]c3cc(Cl)ccc32)CC1 [DOMPERIDONE] | 23 µM (inactive) | 23.7 µM (inactive) | 20.2 µM (inactive) | 19 µM (inactive) | 21.8 µM (inactive) | 4.7 µM (inactive) | 19.4 µM (inactive) | 17.6 µM (inactive) | 16 µM (inactive) | 18.3 µM (inactive) | 17.2 µM (inactive) |  | 17.5 µM (inactive) | 19.2 µM (inactive) | 17 µM (inactive) | 15.4 µM (inactive) | 27.8 µM (inactive) | 17.3 µM (inactive) | 15.7 µM (inactive) | 19.2 µM (inactive)
